Test results from PMC7827406, “Structure–Activity Relationship (SAR) Study of Spautin-1 to Entail the Discovery of Novel NEK4 Inhibitors” (International Journal of Molecular Sciences, 2021).
Like-named read-outs stand apart in the source and are kept apart here.

Experiments:
Experiment in all cases: biochemical
Set-up in all cases: Eurofins KinaseProfiler full panel at Km ATP, residual kinase activity (%) relative to DMSO
[1] = molecular target: T1, PI3 Kinase (p110a/p85a)(h) (Homo sapiens, UniProt P42336)
T1 construct: gene PIK3CA
T1 sequence (P42336 whole entry): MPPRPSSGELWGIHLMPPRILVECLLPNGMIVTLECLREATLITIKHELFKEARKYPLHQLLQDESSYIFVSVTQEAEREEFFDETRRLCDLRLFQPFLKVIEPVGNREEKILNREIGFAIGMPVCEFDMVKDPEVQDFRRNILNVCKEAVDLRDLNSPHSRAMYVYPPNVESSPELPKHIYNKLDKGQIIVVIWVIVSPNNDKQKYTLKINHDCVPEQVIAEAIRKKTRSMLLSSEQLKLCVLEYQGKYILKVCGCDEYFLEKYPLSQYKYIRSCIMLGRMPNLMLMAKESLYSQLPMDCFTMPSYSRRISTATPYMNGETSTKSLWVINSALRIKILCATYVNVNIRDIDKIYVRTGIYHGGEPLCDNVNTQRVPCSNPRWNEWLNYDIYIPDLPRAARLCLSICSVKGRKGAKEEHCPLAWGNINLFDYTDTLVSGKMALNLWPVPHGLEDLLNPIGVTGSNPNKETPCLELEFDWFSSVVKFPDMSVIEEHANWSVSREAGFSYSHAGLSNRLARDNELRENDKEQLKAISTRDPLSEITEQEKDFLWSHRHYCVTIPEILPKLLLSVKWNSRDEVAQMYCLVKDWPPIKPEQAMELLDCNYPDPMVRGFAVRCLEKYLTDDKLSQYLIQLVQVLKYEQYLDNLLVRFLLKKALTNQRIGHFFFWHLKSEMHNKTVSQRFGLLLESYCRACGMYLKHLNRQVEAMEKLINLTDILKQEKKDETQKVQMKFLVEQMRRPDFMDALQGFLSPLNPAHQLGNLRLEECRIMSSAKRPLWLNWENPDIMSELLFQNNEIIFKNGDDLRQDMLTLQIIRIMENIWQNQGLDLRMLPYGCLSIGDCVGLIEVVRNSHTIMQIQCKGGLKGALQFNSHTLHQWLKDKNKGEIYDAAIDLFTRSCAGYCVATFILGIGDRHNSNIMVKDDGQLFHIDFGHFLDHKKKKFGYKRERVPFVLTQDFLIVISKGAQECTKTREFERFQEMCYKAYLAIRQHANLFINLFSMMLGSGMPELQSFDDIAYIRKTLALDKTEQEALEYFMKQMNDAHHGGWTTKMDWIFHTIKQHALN
T1 sequence (P27986 whole entry partner): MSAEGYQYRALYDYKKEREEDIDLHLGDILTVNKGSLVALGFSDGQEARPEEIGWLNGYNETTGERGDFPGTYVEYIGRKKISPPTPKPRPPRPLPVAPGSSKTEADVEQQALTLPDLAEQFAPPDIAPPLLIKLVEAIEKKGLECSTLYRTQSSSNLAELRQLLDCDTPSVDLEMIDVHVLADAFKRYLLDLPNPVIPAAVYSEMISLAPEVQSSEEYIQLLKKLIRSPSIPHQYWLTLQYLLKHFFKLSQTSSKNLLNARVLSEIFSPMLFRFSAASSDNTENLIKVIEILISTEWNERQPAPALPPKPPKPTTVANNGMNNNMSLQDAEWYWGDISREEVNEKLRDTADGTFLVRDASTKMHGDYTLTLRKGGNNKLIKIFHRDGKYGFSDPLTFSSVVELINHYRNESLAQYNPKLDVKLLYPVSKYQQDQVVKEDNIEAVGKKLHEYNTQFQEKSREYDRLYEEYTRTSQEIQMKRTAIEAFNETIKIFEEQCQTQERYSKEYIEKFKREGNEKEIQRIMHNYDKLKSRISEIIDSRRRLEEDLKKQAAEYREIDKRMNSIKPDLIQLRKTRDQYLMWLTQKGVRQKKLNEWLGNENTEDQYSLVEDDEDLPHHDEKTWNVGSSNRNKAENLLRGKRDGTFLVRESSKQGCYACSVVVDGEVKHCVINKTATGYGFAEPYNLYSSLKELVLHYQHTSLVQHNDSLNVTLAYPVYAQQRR
How it was run: (§1)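 Compounds screened at 10 µM in radiometric kinase activity assays at Km ATP, reported as remaining kinase activity (%). A KINOMEscan competition-binding screen at 10 µM measured DNA-tagged kinase retained on immobilized active-site ligand by qPCR.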

[2] = molecular target: T2, ROCK-II(r) (Rattus norvegicus, UniProt Q62868)
T2 construct: gene Rock2
T2 sequence (Q62868 whole entry): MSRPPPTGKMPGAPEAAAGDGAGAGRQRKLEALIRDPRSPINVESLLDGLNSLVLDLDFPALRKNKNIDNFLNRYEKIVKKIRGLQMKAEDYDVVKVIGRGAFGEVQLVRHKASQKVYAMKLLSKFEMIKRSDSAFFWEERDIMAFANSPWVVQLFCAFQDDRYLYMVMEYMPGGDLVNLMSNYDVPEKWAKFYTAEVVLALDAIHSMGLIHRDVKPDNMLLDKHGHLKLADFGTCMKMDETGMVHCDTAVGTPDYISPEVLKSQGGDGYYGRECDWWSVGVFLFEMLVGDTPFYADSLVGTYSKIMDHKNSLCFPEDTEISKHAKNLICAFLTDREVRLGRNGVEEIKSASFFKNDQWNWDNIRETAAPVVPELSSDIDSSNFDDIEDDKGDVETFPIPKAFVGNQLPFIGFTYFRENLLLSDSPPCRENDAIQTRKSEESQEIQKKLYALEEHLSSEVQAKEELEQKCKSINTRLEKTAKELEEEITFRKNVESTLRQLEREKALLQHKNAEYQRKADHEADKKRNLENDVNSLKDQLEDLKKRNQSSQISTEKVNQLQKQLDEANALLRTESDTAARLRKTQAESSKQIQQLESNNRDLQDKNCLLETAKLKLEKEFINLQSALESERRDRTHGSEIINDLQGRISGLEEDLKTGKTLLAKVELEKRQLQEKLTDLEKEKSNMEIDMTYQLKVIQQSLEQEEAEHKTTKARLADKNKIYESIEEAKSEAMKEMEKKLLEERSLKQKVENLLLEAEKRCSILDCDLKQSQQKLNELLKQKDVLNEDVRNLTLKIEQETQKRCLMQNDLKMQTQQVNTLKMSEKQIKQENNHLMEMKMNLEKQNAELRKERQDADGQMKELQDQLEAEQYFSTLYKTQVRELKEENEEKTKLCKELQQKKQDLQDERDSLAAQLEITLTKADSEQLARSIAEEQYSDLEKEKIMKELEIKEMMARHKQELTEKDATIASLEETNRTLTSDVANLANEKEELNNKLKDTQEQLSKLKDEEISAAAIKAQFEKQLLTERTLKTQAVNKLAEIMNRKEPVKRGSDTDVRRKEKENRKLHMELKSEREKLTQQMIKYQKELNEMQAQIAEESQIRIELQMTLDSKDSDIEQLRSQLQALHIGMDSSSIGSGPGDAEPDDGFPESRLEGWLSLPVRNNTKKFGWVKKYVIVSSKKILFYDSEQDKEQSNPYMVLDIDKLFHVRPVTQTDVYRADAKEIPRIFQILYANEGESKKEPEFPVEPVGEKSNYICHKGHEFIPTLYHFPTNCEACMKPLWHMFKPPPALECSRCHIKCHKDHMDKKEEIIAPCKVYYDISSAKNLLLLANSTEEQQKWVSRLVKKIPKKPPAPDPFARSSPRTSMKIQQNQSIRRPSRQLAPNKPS
How it was run: as §1

[3] = molecular target: T3, ALK2(h) (Homo sapiens, UniProt Q04771)
T3 construct: gene ACVR1
T3 sequence (Q04771 1-509): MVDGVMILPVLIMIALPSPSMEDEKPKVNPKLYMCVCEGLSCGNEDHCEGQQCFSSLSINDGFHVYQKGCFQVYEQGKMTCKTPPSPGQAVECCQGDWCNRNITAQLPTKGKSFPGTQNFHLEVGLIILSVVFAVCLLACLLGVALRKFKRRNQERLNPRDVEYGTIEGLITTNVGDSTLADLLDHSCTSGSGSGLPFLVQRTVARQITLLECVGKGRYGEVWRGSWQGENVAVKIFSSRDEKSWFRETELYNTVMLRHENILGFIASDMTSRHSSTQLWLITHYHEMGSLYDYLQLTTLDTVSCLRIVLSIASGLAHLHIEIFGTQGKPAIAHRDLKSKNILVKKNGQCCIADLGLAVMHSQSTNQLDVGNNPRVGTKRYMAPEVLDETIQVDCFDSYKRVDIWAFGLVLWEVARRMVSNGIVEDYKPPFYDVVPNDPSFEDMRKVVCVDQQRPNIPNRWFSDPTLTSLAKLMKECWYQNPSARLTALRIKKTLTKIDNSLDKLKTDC
How it was run: as §1

[4] = molecular target: T4, IRE1(h) (Homo sapiens, UniProt O75460)
T4 construct: gene ERN1
T4 sequence (O75460 whole entry): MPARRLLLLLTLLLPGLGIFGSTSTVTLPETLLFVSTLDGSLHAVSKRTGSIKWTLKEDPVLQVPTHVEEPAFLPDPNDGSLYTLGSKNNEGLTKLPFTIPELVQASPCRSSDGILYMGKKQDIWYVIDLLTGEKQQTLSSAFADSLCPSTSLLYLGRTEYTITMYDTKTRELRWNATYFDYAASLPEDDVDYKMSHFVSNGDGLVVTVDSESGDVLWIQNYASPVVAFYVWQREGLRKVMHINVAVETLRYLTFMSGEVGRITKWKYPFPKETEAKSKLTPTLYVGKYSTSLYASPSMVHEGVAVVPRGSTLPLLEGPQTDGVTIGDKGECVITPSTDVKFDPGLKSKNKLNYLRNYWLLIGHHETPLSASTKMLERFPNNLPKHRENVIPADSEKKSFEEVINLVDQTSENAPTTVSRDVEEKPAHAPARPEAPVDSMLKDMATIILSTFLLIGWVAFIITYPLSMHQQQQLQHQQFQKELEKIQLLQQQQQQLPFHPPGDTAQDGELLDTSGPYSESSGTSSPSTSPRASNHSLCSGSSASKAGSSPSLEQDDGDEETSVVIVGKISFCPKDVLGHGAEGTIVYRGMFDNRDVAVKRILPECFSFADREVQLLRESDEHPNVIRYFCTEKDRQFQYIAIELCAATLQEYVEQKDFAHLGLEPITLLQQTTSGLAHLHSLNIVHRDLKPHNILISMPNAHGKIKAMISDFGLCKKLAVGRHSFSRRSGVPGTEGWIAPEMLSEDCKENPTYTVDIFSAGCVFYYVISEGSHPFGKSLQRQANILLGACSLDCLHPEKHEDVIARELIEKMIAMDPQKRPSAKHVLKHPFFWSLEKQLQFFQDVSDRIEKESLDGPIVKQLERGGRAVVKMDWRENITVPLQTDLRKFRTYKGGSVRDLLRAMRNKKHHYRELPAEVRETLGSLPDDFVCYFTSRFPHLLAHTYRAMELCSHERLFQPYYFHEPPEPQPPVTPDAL
How it was run: as §1

[5] = molecular target: T5, GRK3(h) (Homo sapiens, UniProt P35626)
T5 sequence (P35626 1-688): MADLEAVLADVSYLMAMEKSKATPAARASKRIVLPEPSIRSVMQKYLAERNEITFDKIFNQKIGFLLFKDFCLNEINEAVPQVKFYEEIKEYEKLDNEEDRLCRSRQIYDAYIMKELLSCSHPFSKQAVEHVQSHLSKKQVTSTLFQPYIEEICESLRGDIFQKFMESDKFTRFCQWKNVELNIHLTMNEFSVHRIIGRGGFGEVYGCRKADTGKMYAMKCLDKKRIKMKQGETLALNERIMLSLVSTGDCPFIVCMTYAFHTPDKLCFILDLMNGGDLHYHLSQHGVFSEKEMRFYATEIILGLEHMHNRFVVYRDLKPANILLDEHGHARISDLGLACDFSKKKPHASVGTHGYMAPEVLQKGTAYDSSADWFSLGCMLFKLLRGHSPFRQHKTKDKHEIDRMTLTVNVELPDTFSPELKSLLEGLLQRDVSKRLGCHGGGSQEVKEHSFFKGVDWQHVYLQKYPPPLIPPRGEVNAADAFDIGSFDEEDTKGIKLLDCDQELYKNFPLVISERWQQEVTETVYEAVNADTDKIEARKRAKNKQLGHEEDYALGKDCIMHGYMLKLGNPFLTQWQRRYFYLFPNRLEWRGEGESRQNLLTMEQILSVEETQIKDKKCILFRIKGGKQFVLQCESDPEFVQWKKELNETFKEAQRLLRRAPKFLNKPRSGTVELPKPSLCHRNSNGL
How it was run: as §1

[6] = molecular target: GRK5(h) (Homo sapiens, UniProt P34947)
Chain of GRK5(h) (P34947 whole entry): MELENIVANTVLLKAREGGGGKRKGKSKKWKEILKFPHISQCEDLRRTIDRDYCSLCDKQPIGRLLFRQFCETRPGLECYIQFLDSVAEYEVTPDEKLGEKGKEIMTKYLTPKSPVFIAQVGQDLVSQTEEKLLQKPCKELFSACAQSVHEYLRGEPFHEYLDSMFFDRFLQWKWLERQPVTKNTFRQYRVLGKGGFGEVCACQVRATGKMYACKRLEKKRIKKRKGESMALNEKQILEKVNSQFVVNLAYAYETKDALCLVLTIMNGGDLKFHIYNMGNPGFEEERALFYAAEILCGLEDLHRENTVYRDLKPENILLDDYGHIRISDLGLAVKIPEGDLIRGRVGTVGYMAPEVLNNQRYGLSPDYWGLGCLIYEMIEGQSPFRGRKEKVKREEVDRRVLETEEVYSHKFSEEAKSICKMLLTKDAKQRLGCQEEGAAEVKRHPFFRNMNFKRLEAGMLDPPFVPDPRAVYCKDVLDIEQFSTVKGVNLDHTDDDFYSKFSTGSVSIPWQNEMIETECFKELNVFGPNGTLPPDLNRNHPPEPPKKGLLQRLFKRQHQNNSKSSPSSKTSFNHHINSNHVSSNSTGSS
How it was run: as §1

[7] = molecular target: T6, MKK3(h) (Homo sapiens, UniProt P46734)
T6 construct: gene MAP2K3
T6 sequence (P46734 1-347): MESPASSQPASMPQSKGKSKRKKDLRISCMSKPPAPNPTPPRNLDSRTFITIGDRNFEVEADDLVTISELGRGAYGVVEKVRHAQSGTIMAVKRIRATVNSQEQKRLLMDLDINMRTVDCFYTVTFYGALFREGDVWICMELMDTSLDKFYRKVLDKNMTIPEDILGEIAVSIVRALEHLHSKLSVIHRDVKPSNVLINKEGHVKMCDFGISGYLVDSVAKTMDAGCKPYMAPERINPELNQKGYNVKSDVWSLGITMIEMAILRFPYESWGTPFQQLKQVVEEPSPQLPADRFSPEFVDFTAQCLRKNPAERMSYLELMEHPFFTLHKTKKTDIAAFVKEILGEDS
How it was run: as §1

[8] = read-out: Residual activity (%) 5ay
[9] = read-out: Residual activity (%) Spautin-1 5aa
[10] = read-out: Residual activity (%) 5at
[11] = read-out: Residual activity (%) 5as

`COc1ccc2ncnc(Nc3cccc(F)c3)c2c1` [5ay, N-(3-Fluorophenyl)-6-Methoxy-4-Quinazolinamine] was tested, and the remaining activity at 10 µM [1, 8] was 101%, the remaining activity at 10 µM [2, 8] was 98% and the remaining activity at 10 µM [3, 8] was 50%. It also gave a remaining activity at 10 µM [4, 8] of 83%, a remaining activity at 10 µM [5, 8] of 93% and a remaining activity at 10 µM [6, 8] of 89%. The remaining activity at 10 µM [7, 8] was 105%.
`Fc1ccc(CNc2ncnc3ccc(F)cc23)cc1` [5aa, 6-Fluoro-N-(4-fluorobenzyl)-4-Quinazolinamine] showed a remaining activity at 10 µM [1, 9] of 100%, a remaining activity at 10 µM [2, 9] of 90% and a remaining activity at 10 µM [3, 9] of 60%. The remaining activity at 10 µM [4, 9] was 99%, the remaining activity at 10 µM [5, 9] was 95% and the remaining activity at 10 µM [6, 9] was 86%. For the same compound, the remaining activity at 10 µM [7, 9] was 101%.
Work on `Fc1ccc2ncnc(NCCc3ccc(Cl)cc3)c2c1` [5at, N-[2-(4-Chlorophenyl)Ethyl]-6-Fluoro-4-Quinazolinamine] yielded a remaining activity at 10 µM [1, 10] of 94%, a remaining activity at 10 µM [2, 10] of 103% and a remaining activity at 10 µM [3, 10] of 58%. It also gave a remaining activity at 10 µM [4, 10] of 88%, a remaining activity at 10 µM [5, 10] of 97% and a remaining activity at 10 µM [6, 10] of 96%. The remaining activity at 10 µM [7, 10] was 86%.
`Fc1ccc(CCNc2ncnc3ccc(F)cc23)cc1` [5as, 6-Fluoro-N-[2-(4-Fluorophenyl)Ethyl]-4-Quinazolinamine] showed a remaining activity at 10 µM [1, 11] of 103%, a remaining activity at 10 µM [2, 11] of 105% and a remaining activity at 10 µM [3, 11] of 45%. The remaining activity at 10 µM [4, 11] was 89%, the remaining activity at 10 µM [5, 11] was 92% and the remaining activity at 10 µM [6, 11] was 95%. It also gave a remaining activity at 10 µM [7, 11] of 82%.
